Consider two compounds from patent publication US20120251495A1, “PTERIN BASED THERAPIES FOR INFLAMMATORY CONDITIONS” (priority 2008, published 2012).

Usually T/C stands for the result in the treated group divided by that in the control group, in per cent.

Assay [1] concerns serum cytokines/chemokines. As to the kind of experiment: Serum cytokine/chemokine array in HBV transgenic mice. The format is in vivo. How it is done: (§1) Experimental design. DCP was administered per os, once daily for 14 days to randomly assigned HBV transgenic mice at 23, 7.3, and 2.3 mg/(kg d). ADV was used as a positive control at 10 mg/(kg d) using the same treatment schedule and vehicle (0.4% CMC). On day 14, mice were euthanized to collect serum and liver samples to perform liver HBV DNA, liver core and serum HBe assays, serum cytokine/chemokine profiles, and IDO metabolite assays.
Liver or serum cytokine/chemokine array. Liver samples were prepared for the Q-Plex™ mouse cytokine/chemokine array (Quansys Biosciences, Logan, Utah) as described previously (Morrey J D, Molter N E, Taro B, Lay M & Fairman J. Efficacy of cationic lipid-DNA complexes (CLDC) on hepatitis B virus in transgenic mice. Antiviral Res 2008; 79:71-79).

Assay [2] concerns MDA-MB-231 human breast tumor xenographs. As to the kind of experiment: Antitumor efficacy in nude mice with MDA-MB-231 xenographs, 2nd experiment. The format is in vivo, athymic nude mice.
Procedure: In the 2nd experiment, twenty-nine athymic nude, also purchased from Harlan Sprague Dawley, Inc. (Indianapolis, Ind.), were each injected subcutaneously with 10×10^6 MDA-MB-231 cancer cells into the right flank. When tumors reached 3-5 mm in size, the mice were divided into five treatment groups of five each and a control group of four mice. […] All the other mice in the 2nd experiment persisted ≧43 days without complications. Experimental groups were treated by oral gavage once daily with the indicated test suspensions or solutions.
The control mice in the 1st experiment were treated with sterile water while the control mice in the 2nd experiment were untreated to evaluate the effect of mouse handling and gavaging upon tumor growth. Daily dosing was for 7 days per week. Animals were restrained but not anesthetized for oral dosing. Tumors were measured twice weekly with calipers and body weights taken twice weekly on the day of tumor measurements. Blood was collected from all animals via cardiac puncture at termination (after 70 to 98 days of treatment) and processed to EDTA plasma for analysis.
The MDA-MB-231 human breast tumor cell lines were supplied by SRI International (Menlo Park, Calif.) and propagated using standard in vitro cell expansion methods. Briefly, cells were grown in L-15 media from Gibco (Cat. No. 11415-064) supplemented with 2 mM L-Glutamine and 10% Fetal Bovine Serum (FBS). The cells were cultured in an incubator with 5% CO2, 37.5° C., and 80% humidity. Cells were harvested with 0.25% (w/v) Trypsin-0.03% (w/v) EDTA solution. Cells were prepared for injection by standard methods to appropriate concentrations. Animals were temporarily restrained but not anesthetized for the inoculation of the tumor cells. Animals were subcutaneously injected with the tumor cells in a 100-200 μl volume.
Each animal was individually tracked for tumor growth by external caliper measurements of protruding tumor. Primary tumor sizes were measured using calipers and an approximate tumor volume calculated using the formula 1/2 (a×b^2), where b was the smaller of two perpendicular diameters.
For each group, the mean and standard error of the mean (SEM) of the ratio V/Vo, Relative Tumor Volume (RTV), were plotted as a function of treatment time after inoculation. V0 was the tumor volume at Day 0, when treatment began.
The next assay concerns plasma cytokines. As to the kind of experiment: Plasma cytokine levels (multiplex and single ELISA kits), 2nd experiment. The format is in vivo, athymic nude mice. The note with it: for IL-5: limit of detection 3.0; for IFN-γ / IL-4 / IL-12: limit of detection 3.2; for IL-6: limit of detection 3.9; for IL-1β: limit of detection 4.1. As to the method:
Cytokine levels in EDTA plasma from the mice in the 2nd experiment were measured at the UCSD Core Laboratory (San Diego, Calif.) using a multiplex assay kit for IL-1β, IL-2, IL-4, IL-5, IL-10, IL-12, IFN-γ, TNF-α and single ELISA kits for IL-6 and TGF-β1 by R&D Systems. […] For both the 1st and 2nd experiments, those measured cytokine values falling below the limits of detection were set to the higher assay limit for the purposes of the subsequent statistical analyses, and recorded as n.d. (not detectable) in Tables 1 through 3.

Assay [3] concerns hepatitis B core antigen (HBcAg). As to the kind of experiment: Liver HBcAg assay in HBV transgenic mice. The format is in vivo. Conditions: 2.3 mg/(kg d). As to the method: as §1
Liver HBcAg assay. Liver biopsies were processed for detection of hepatitis B core antigen (HBcAg) (Motley J D, Motter N E, Taro B, Lay M & Fairman J. Efficacy of cationic lipid-DNA complexes (CLDC) on hepatitis B virus in transgenic mice. Antiviral Res 2008; 79:71-79). Three different parameters were obtained from each tissue section. […] The first two parameters were obtained by counting cells surrounding central veins as follows: the total number of cells, the number of cells with stained nuclei, and the number of cells with stained cytoplasms. The identities of the samples were blinded to person counting. The stained nuclei counts or the stained cytoplasm counts were divided by the total cells. Three central vein areas were counted for each slide sample. For the third parameter, a field not in a central vein area was counted for the total number of stained nuclei. One-quarter of the field was counted. Three such fields were counted per liver section. The identity of the samples was blinded to the person reading the slides.

Assay [4] deals with hepatitis B virus (HBV). As to the kind of experiment: Liver HBV DNA by quantitative PCR in HBV transgenic mice. Conditions: female HBV mice; 23.0 mg/(kg day), per os 14 days. The format is in vivo.
Assay [5] concerns hepatitis B virus (HBV). As to the kind of experiment: Liver HBV DNA by Southern blot hybridization in HBV transgenic mice. The format is in vivo.
Source text: Animals. Homozygous adult female and male transgenic HBV mice were used (20.6±2.8 g). The mice were originally obtained from Dr. Frank Chisari (Scripps Research Institute, La Jolla, Calif.) (Guidotti L G, Matzke B, Schaller H & Chisari F V. High-level hepatitis B virus replication in transgenic mice. J Virol 1995; 69:6158-6169) and were subsequently raised in the Biosafety Level 3 (BL-3) area of the AAALAC-accredited USU Laboratory Animal Research Center (LARC). The animals were derived from founder 1.3.32 (Guidotti L G, Matzke B, Schaller H & Chisari F V. High-level hepatitis B virus replication in transgenic mice. J Virol 1995; 69:6158-6169). This study was conducted in accordance with the approval of the Institutional Animal Care and Use Committee of Utah State University.
as §1
Liver HBV DNA assays. Southern blot hybridization and quantitative PCR (qPCR) were performed on liver tissues (Morrey J D, Motter N E, Tam B, Lay M & Fairman J. Efficacy of cationic lipid-DNA complexes (CLDC) on hepatitis B virus in transgenic mice. Antiviral Res 2008; 79:71-79). For Southern blot hybridization, the ratio of the viral DNA bands to the transgene band was used to determine the concentration of viral DNA per host DNA. This calculation was based upon the knowledge that there were 1.3 copies of the transgene present per host cell with this line of transgenic mice. The transgene was used as an internal indicator to calculate the pg of HBV DNA per μg of homozygous cellular host DNA. For qPCR, the assay was run with a series of 10-fold dilutions of pooled liver DNA from HBV transgenic mice to obtain a standard curve. Mean C(t) values were obtained for duplicates of each sample. The mean C(t) values of each sample were used to obtain the log relative DNA values using a formula of the fit line of the standard curve.

For the compound `Nc1nc([O-])c2nccnc2n1.Nc1nc([O-])c2nccnc2n1.[Ca+2]` [DCP, dipterinyl calcium pentahydrate], in assay [1] (male HBV mice, 2.3 mg/(kg day)), the “serum chemokine RANTES versus controls” value was “significant decrease”. Moreover, in assay [1] (serum, female, 7.3 mg/(kg d)), the “IL-4, Female levels (mean ± SEM)” value came out at 241 ± 53 rel. pg/ml; the “IL-9, Female levels (mean ± SEM)” value amounted to 185 ± 28 rel. pg/ml; the “IL-12, Female levels (mean ± SEM)” value is 642 ± 11 rel. pg/ml. In assay [1] (serum, male, 7.3 mg/(kg d)), the “IL-4, Male levels (mean ± SEM)” value came out at 87 ± 28 rel. pg/ml; the “IL-9, Male levels (mean ± SEM)” value worked out at 112 ± 13 rel. pg/ml; the “IL-12, Male levels (mean ± SEM)” value is listed as 575 ± 17 rel. pg/ml. Also, in assay [2] ((1:2) 25, DCP 23 and 69, calcium chloride dihydrate 4.2 mg/kg/day), the “MDA-MB-231 xenograph growth inhibition” value is listed as “significantly inhibit”. Also, in the assay on plasma cytokines (2nd experiment, 23 mg/kg/d), the IL-5 was found to be 20.3 ± 10.2 pg/mL, the IFN-γ came to 15.2 ± 4.9 pg/mL, the IL-4 stood at 5.7 ± 1.7 pg/mL and the IL-12 was determined as 1141.7 ± 327.1 pg/mL. In addition, in the assay on plasma cytokines (2nd experiment, 23 mg/kg/d), the IL-6 turned out to be 49.6 ± 18.5 pg/mL and the IL-1β was 6.2 ± .8 pg/mL. In addition, the IL-2 with plasma cytokines (2nd experiment, 23 mg/kg/d, limit of detection 12.6) is 12.7 ± .11 pg/mL. This compound also yielded an IL-10 with plasma cytokines (2nd experiment, 23 mg/kg/d, limit of detection 24.6) of 37.0 ± 12.4 pg/mL. Further, in the assay on plasma cytokines (2nd experiment, 69 mg/kg/d), the IL-5 was determined as 24.9 ± 17.0 pg/mL, the IFN-γ was found to be 29.9 ± 18.0 pg/mL, the IL-4 is 4.0 ± .6 pg/mL and the IL-12 turned out to be 1050.52 ± 238.7 pg/mL. Further, in the assay with plasma cytokines (2nd experiment, 69 mg/kg/d), the IL-6 came out at 37.0 ± 11.3 pg/mL and the IL-1β was 5.3 ± .7 pg/mL. For the same compound, the TGF-β1 in the assay with plasma cytokines (2nd experiment, 69 mg/kg/d, limit of detection 31.2) was 49.5 ± 18.3 pg/mL. In addition, the “HBcAg Stained nuclei/total, Female levels (mean ± SEM)” value in assay [3] (female) is 0.36 ± 0.046. For the same compound, in assay [3] (male), the “HBcAg Stained nuclei/total, Male levels (mean ± SEM)” value is 0.51 ± 0.041. In addition, the “Log HBV DNA (PCR) versus controls” value in the assay with hepatitis B virus (HBV) [4] is listed as “significant treatment decreases”. Also, in the assay on hepatitis B virus (HBV) [5] (2.3 mg/(kg d)), the “Liver HBV DNA (Southern), Female levels (mean ± SEM)” value was found to be 12.7 ± 1.9 pg/µg and the “Liver HBV DNA (Southern), Male levels (mean ± SEM)” value was found to be 46.4 ± 10.8 pg/µg. Also, in the assay with hepatitis B virus (HBV) [5] (7.3 mg/(kg d)), the “Liver HBV DNA (Southern), Female levels (mean ± SEM)” value turned out to be 17.3 ± 3.5 pg/µg and the “Liver HBV DNA (Southern), Male levels (mean ± SEM)” value was found to be 50.4 ± 10.3 pg/µg. Besides, in the assay with hepatitis B virus (HBV) [5] (23.0 mg/(kg d)), the “Liver HBV DNA (Southern), Female levels (mean ± SEM)” value came out at 10.6 ± 1.6 pg/µg and the “Liver HBV DNA (Southern), Male levels (mean ± SEM)” value came out at 36.0 ± 10.6 pg/µg.

(1:4 mol:mol) calcium pterin [CaPterin] yielded a T/C in assay [2] (21 mg/kg/day, after 43 days) of 37%. Besides, in the assay on plasma cytokines (2nd experiment, 21 mg/kg/d), the IL-5 came out at 8.2 ± 1.4 pg/mL, the IFN-γ amounted to 6.2 ± 2.4 pg/mL, the IL-12 is 721.6 ± 19.1 pg/mL and the IL-1β was 5.0 ± .7 pg/mL. In the assay on plasma cytokines (2nd experiment, 21 mg/kg/d, plasma at sacrifice), this compound displayed an IL-6 of 30.3 ± 10.2 pg/mL. Also, the “increases in plasma IL-12 (FIG. 10)” value in the assay with plasma cytokines (at the dosages tested) is given as “lower, non-significant increases”.
